Test results from patent EP0104826A2, “Immunomodulator and method of use for immunomodulation” (FUJISAWA PHARMACEUTICAL CO., LTD., priority 1982, dated 1984).

Tests used:
[1] = test system: mixed lymphocyte culture (MLC)-stimulated spleen cells; experiment: Mixed lymphocyte culture (MLC), 3H-thymidine uptake; type: cell-based, mice
Procedure: Female C57BL/6 mice, 8 weeks in age, and female BALB/c mice, 8 weeks in age were sacrificed, spleens were aseptically removed and single cell suspensions were prepared as sources of stimulating and responding cells, respectively. Prior to culture, the stimulator cells were treated with 200 µg/ml of mitomycin C for 45 minutes at 37°C, followed by three washes with PBS.
They were established at a final concentration of 0.2 x 10^6 cells/0.2 ml of reaction mixture and cultured in microtiteration plate (Falcon, No.3040) using RPMI medium supplemented with 10% fetal bovine serum and 5 x 10^-5M 2- mercaptoethanol. The culture was continued for 120 hours and pulse-labeled with ^3H-thymidine for 24 hours before the termination of incubation. The cells were collected and radioactivity was counted.

[2] = test system: antibody forming capacities; experiment: Antibody forming capacity (PFC-SRBC) in mice immunosuppressed with cyclophosphamide; type: in vivo
Procedure: Female BDF1 (8 weeks in age) mice were injected intraperitoneally with cyclophosphamide (22.5 mg/kg) 4 days before immunization with 5 x 10^8 SRBC. Samples were administered to mice i.p. from four days before immunization, every day for five days.
Mouse splenic lymphocytes producing antibody against SRBC were quantitated by using Cunningham modification method described previously.

O[C@H]1[C@H]2[C@H](O)CCCN2C[C@H]1O [Swainsonine]
^3H-thymidine uptake (cpm) ([1]; MLC with immunosuppressive factor (3 µl) + swainsonine 0.00002 µg/well): 10,449 cpm | ^3H-thymidine uptake (cpm) ([1]; MLC with immunosuppressive factor (3 µl) + swainsonine 0.0002 µg/well): 13,015 cpm | ^3H-thymidine uptake (cpm) ([1]; MLC with immunosuppressive factor (3 µl) + swainsonine 0.002 µg/well): 24,951 cpm | ^3H-thymidine uptake (cpm) ([1]; MLC with immunosuppressive factor (3 µl) + swainsonine 0.02 µg/well): 31,595 cpm | ^3H-thymidine uptake (cpm) ([1]; MLC with immunosuppressive factor (3 µl) + swainsonine 0.2 µg/well): 27,942 cpm | ^3H-thymidine uptake (cpm) ([1]; MLC with immunosuppressive factor (3 µl) + swainsonine 2 µg/well): 23,928 cpm | ^3H-thymidine uptake (cpm) ([1]; MLC with immunosuppressive factor (5 µl) + swainsonine 0.00002 µg/well): 3,737 cpm | ^3H-thymidine uptake (cpm) ([1]; MLC with immunosuppressive factor (5 µl) + swainsonine 0.0002 µg/well): 6,377 cpm | ^3H-thymidine uptake (cpm) ([1]; MLC with immunosuppressive factor (5 µl) + swainsonine 0.002 µg/well): 10,918 cpm | ^3H-thymidine uptake (cpm) ([1]; MLC with immunosuppressive factor (5 µl) + swainsonine 0.02 µg/well): 7,679 cpm | ^3H-thymidine uptake (cpm) ([1]; MLC with immunosuppressive factor (5 µl) + swainsonine 0.2 µg/well): 7,928 cpm | ^3H-thymidine uptake (cpm) ([1]; MLC with immunosuppressive factor (5 µl) + swainsonine 2 µg/well): 6,709 cpm | ^3H-thymidine uptake (cpm) ([1]; MLC with swainsonine 0.00002 µg/well, no immunosuppressive factor): 20,653 cpm | ^3H-thymidine uptake (cpm) ([1]; MLC with swainsonine 0.0002 µg/well, no immunosuppressive factor): 21,823 cpm | ^3H-thymidine uptake (cpm) ([1]; MLC with swainsonine 0.002 µg/well, no immunosuppressive factor): 29,688 cpm | ^3H-thymidine uptake (cpm) ([1]; MLC with swainsonine 0.02 µg/well, no immunosuppressive factor): 33,686 cpm | ^3H-thymidine uptake (cpm) ([1]; MLC with swainsonine 0.2 µg/well, no immunosuppressive factor): 38,077 cpm | ^3H-thymidine uptake (cpm) ([1]; MLC with swainsonine 2 µg/well, no immunosuppressive factor): 33,104 cpm | inhibitory activity of immunosuppressive factor in MLC ([1]; immunosuppressive factor incubated with swainsonine): the inhibitory activity was removed | MLC-stimulated spleen cells ^3H-thymidine uptake ([1]; swainsonine added to MLC): enhanced remarkably | PFC-SRBC/spleen (average number of 5 mice/group) ([2]; BDF1 mice, Swainsonine 100 mg/kg i.p. alone): 16.54 x 10^4 PFC-SRBC/spleen | PFC-SRBC/spleen (average number of 5 mice/group) ([2]; Cyclophosphamide (22.5 mg/kg) + Swainsonine 3 mg/kg i.p.): 21.53 x 10^4 PFC-SRBC/spleen | PFC-SRBC/spleen (average number of 5 mice/group) ([2]; Cyclophosphamide (22.5 mg/kg) + Swainsonine 11 mg/kg i.p.): 16.52 x 10^4 PFC-SRBC/spleen | PFC-SRBC/spleen (average number of 5 mice/group) ([2]; Cyclophosphamide (22.5 mg/kg) + Swainsonine 33 mg/kg i.p.): 17.19 x 10^4 PFC-SRBC/spleen | PFC-SRBC/spleen (average number of 5 mice/group) ([2]; Cyclophosphamide (22.5 mg/kg) + Swainsonine 100 mg/kg i.p.): 16.48 x 10^4 PFC-SRBC/spleen | capacities to produce antibody against SRBC ([2]; mice injected cyclophosphamide): restored the capacities
